In US11603373B2, “TDO2 and IDO1 inhibitors” (Genentech, Inc., priority 2017, dated 2023):

Key:
[1] = target: T1, TDO2 (SW48 cells, high TDO expressing cells) (Homo sapiens, UniProt P48775); test: NFK GreenScreen cell assay, inhibition of TDO in SW48 cells; assay type: cell-based; details: read-out: TDO2 Cell Fluor EC50
T1 construct: SW48 cells (high TDO expressing cells); endogenous in cells; host or cells: SW48 cells
From the text: (§1) Cells are counted on a Vi-Cell (Beckman Coulter). […] The final DMSO concentration is 0.5%.

[2] = target: T2, IDO1 (A172+IFNg cells, high IDO expressing cells) (Homo sapiens, UniProt P14902); test: NFK GreenScreen cell assay, inhibition of IDO in A172+IFNg cells; assay type: cell-based; details: read-out: IDO cell Fluor EC50
T2 construct: A172+IFNg cells (high IDO expressing cells); endogenous in cells; host or cells: A172 cells induced with 100 ng/ml IFNγ
From the text: as §1

T1 sequence (P48775 whole entry): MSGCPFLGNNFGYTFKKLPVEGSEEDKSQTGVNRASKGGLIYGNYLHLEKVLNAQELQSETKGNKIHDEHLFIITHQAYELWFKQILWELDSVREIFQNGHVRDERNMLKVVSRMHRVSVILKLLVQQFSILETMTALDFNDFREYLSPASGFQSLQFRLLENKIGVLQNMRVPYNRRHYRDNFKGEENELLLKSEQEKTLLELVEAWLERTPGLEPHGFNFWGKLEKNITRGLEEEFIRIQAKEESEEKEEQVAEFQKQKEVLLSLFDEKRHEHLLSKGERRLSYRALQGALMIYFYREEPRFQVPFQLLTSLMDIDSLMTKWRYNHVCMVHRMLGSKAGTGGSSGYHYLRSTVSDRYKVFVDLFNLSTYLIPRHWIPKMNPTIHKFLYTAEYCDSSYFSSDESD
T2 sequence (P14902 whole entry): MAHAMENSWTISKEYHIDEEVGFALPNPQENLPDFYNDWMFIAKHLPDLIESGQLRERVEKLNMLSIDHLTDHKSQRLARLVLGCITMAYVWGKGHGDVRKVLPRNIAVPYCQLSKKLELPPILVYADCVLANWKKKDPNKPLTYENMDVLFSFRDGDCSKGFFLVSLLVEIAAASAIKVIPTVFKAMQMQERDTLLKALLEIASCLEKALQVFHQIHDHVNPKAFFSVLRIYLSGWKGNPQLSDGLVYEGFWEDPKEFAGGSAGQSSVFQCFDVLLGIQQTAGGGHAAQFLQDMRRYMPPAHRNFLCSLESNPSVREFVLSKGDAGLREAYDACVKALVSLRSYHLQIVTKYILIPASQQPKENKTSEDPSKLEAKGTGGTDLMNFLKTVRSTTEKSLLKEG

EC50 [1] | EC50 [2] | SMILES
94 nM | 99 nM | COCCOC(=O)N1CCC2(CC[C@@H]([C@H]3c4ccccc4-c4cncn43)[C@H]2O)CC1 (single isomer, unassigned) [Example 19]
133 nM | 115 nM | CS(=O)(=O)N1CCC2(CC[C@@H]([C@H]3c4ccccc4-c4cncn43)[C@H]2O)CC1 (single isomer, unassigned) [Example 7c]
670 nM | 1300 nM | CC(=O)N1CC2(CC[C@H]([C@@H]3c4ccccc4-c4cncn43)[C@H]2O)C1 (single isomer, unassigned) [Example 17]
330 nM | 150 nM | O=S(=O)(C1COC1)N1CCC2(CC1)CC(C1c3ccccc3-c3cncn31)C2O (stereo not shown) [Example 23a, 2-(5H-imidazo[1,5-b]isoindol-5-yl)-7-(oxetan-3-ylsulfonyl)-7-azaspiro[3.5]nonan-3-ol]
3700 nM | 3900 nM | O=C(CN1CCCC1=O)N1CCC2(CC1)C[C@@H]([C@H]1c3ccccc3-c3cncn31)[C@H]2O [compound 52, 1-[2-[3-hydroxy-2-(5H-imidazo[1,5-b]isoindol-5-yl)-7-azaspiro[3.5]nonan-7-yl]-2-oxo-ethyl]pyrrolidin-2-one]
100 nM | 75 nM | N#CCS(=O)(=O)N1CCC2(CC1)C[C@@H]([C@H]1c3ccccc3-c3cncn31)[C@H]2O [Example 21b, (2S,3R)-2-[[3-hydroxy-2-((5S)-5H-imidazo[1,5-b]isoindol-5-yl)-7-azaspiro[3.5]nonan-7-yl]sulfonyl]acetonitrile]
740 nM | 120 nM | CC(C)(C)OC(=O)N1[C@@H]2CC[C@H]1C[C@]1(C[C@@H]([C@H]3c4ccccc4-c4cncn43)[C@H]1O)C2 (single isomer, unassigned) [Example 12j]
520 nM | 1900 nM | CC(C)(C)OC(=O)N1[C@@H]2CC[C@H]1C[C@]1(C[C@H]([C@H]3c4ccccc4-c4cncn43)[C@@H]1O)C2 (single isomer, unassigned) [Example 12c]
160 nM | 290 nM | O=S1(=O)CCC2(CC[C@@H]([C@H]3c4ccccc4-c4cncn43)[C@H]2O)CC1 (relative stereo) [Example 13a, (1R,2S)-1-hydroxy-2-((S)-5H-imidazo[5,1-a]isoindol-5-yl)-8-thiaspiro[4.5]decane 8,8-dioxide]
410 nM | 2100 nM | CC(C)(C)OC(=O)N1CC2CCC(C1)C21C[C@H]([C@@H]2c3ccccc3-c3cncn32)[C@@H]1O (relative stereo) [Example 22a, tert-butyl (2′S,3′R)-2′-hydroxy-3′-((R)-5H-imidazo[5,1-a]isoindol-5-yl)-3-azaspiro[bicyclo[3.2.1]octane-8,1′-cyclobutane]-3-carboxylate]
5700 nM | 3400 nM | CC(=O)N1CCC(C(=O)N2CCC3(CC2)C[C@@H]([C@H]2c4ccccc4-c4cncn42)[C@H]3O)CC1 [compound 68, 1-[4-[3-hydroxy-2-(5H-imidazo[1,5-b]isoindol-5-yl)-7-azaspiro[3.5]nonane-7-carbonyl]-1-piperidyl]ethanone]
3300 nM | 7200 nM | O=S1(=O)CCC2(CC[C@H]([C@@H]3c4ccccc4-c4cncn43)[C@@H]2O)CC1 (single isomer, unassigned) [Example 13b]
510 nM | 16000 nM | NS(=O)(=O)N1CCC2(CC[C@H]([C@H]3c4ccccc4-c4cncn43)[C@H]2O)CC1 (single isomer, unassigned) [Example 4b]
480 nM | 32 nM | CC(=O)N(C)c1ccc(S(=O)(=O)N2CCC3(CC2)C[C@@H]([C@H]2c4ccccc4-c4cncn42)[C@H]3O)cc1 [compound 34, N-[4-[[3-hydroxy-2-(5H-imidazo[1,5-b]isoindol-5-yl)-7-azaspiro[3.5]nonan-7-yl]sulfonyl]phenyl]-N-methyl-acetamide]
460 nM | 140 nM | CC(=O)N1CCC(S(=O)(=O)N2CCC3(CC2)CC(C2c4ccccc4-c4cncn42)C3O)CC1 (stereo not shown) [compound 35, 1-[4-[[3-hydroxy-2-(5H-imidazo[1,5-b]isoindol-5-yl)-7-azaspiro[3.5]nonan-7-yl]sulfonyl]-1-piperidyl]ethanone]
300 nM | 27.9 nM | CC(C)(C)OC(=O)N1CCC2(CC1)C[C@@H]([C@H]1c3ccccc3-c3cncn31)[C@H]2O (single isomer, unassigned) [Example 1b]
240 nM | 410 nM | CC(C)(C)OC(=O)N1CCC2(CC[C@H]([C@H]3c4ccccc4-c4cncn43)[C@H]2O)CC1 (single isomer, unassigned) [Example 2b]
1500 nM | 3900 nM | CC(C)(C)OC(=O)N1[C@@H]2CC[C@H]1C[C@]1(C[C@@H]([C@@H]3c4ccccc4-c4cncn43)[C@@H]1O)C2 (single isomer, unassigned) [Example 12e]
2100 nM | 1300 nM | CC(C)(C)OC(=O)N[C@H]1CC[C@@]2(CC1)C[C@@H]([C@H]1c3ccccc3-c3cncn31)[C@@H]2O (single isomer, unassigned) [Example 24b]
4000 nM | 2800 nM | CC(C)(C)OC(=O)N1CC2CCC(C1)C21C[C@@H]([C@H]2c3ccccc3-c3cncn32)[C@@H]1O (stereo partly drawn) [Example 22h, tert-butyl (2′S,3′S)-2′-hydroxy-3′-((S)-5H-imidazo[5,1-a]isoindol-5-yl)-3-azaspiro[bicyclo[3.2.1]octane-8,1′-cyclobutane]-3-carboxylate]
220 nM | 390 nM | O=C(CC1CCOCC1)N1CCC2(CC1)CC(C1c3ccccc3-c3cncn31)C2O (stereo not shown) [compound 51, 1-[3-hydroxy-2-(5H-imidazo[1,5-b]isoindol-5-yl)-7-azaspiro[3.5]nonan-7-yl]-2-tetrahydropyran-4-yl-ethanone]
13000 nM | 7000 nM | CC(C)(C)OC(=O)N1[C@@H]2CC[C@H]1C[C@@]1(C[C@@H]([C@H]3c4ccccc4-c4cncn43)[C@@H]1O)C2 (single isomer, unassigned) [Example 12h]
370 nM | 350 nM | O=C(C(F)F)N1CCC2(CC1)CC(C1c3ccccc3-c3cncn31)C2O (stereo not shown) [compound 69, 2,2-difluoro-1-[3-hydroxy-2-(5H-imidazo[1,5-b]isoindol-5-yl)-7-azaspiro[3.5]nonan-7-yl]ethanone]
2000 nM | 2800 nM | O=S(=O)(c1c[nH]cn1)N1CCC2(CCC(C3c4ccccc4-c4cncn43)C2O)CC1 (single isomer, unassigned) [compound 59, 8-((1H-imidazol-4-yl)sulfonyl)-2-(5H-imidazo[5,1-a]isoindol-5-yl)-8-azaspiro[4.5]decan-1-ol]
120 nM | 48 nM | O=S(=O)(CF)N1CCC2(CC1)C[C@@H]([C@H]1c3ccccc3-c3cncn31)[C@H]2O (single isomer, unassigned) [Example 8b]
260 nM | 960 nM | CC(C)(C)OC(=O)N[C@H]1CC[C@]2(CC1)C[C@H]([C@H]1c3ccccc3-c3cncn31)[C@H]2O (single isomer, unassigned) [Example 24i]
1230 nM | 4680 nM | CS(=O)(=O)N1CCC2(CC1)C[C@H]([C@H]1c3ccccc3-c3cncn31)[C@H]2O (single isomer, unassigned) [Example 6g]
4600 nM | 6200 nM | NS(=O)(=O)N1CCC2(CC[C@@H]([C@H]3c4ccccc4-c4cncn43)[C@H]2O)CC1 (single isomer, unassigned) [Example 4c]
15000 nM | 6600 nM | CC(C)(C)OC(=O)N1CCC2(CC[C@@H]([C@@H]3c4ccccc4-c4cncn43)[C@@H]2O)CC1 (single isomer, unassigned) [Example 2a]
